Assay results taken from ChEMBL document CHEMBL1125132, “Synthesis and inhibitory potency of peptides corresponding to the subunit 2 C-terminal region of herpes virus ribonucleotide reductases” (J Med Chem, 1990).
Numbered stars: 1 amine (or outer) side, 2 acyl side, 3 side chain; on linkers, the order of the positions; unused ones are H or OH. Square brackets hold non-standard residues; d marks the D form. Peptide text beside a SMILES is read from it. * marks the point of attachment. ξ: configuration not given here. X1 = CC(C)[C@@H](C(=O)[*:2])N(CCCCCCCCO[*:3])[*:1]; Desaminotyrosyl = O=C(CCc1ccc(O)cc1)*; Thr(3ξ) = CC(O)[C@H](N)C(=O)O

Key:
[1] = biological target: T1, Ribonucleoside-diphosphate reductase large subunit (Herpes simplex virus (type 1 / strain 17), UniProt P08543); test: Inhibitory activity against HSV-1 Ribonucleoside diphosphate reductase was determined; set-up: species or system Human alphaherpesvirus 1
T1 sequence (P08543 whole entry): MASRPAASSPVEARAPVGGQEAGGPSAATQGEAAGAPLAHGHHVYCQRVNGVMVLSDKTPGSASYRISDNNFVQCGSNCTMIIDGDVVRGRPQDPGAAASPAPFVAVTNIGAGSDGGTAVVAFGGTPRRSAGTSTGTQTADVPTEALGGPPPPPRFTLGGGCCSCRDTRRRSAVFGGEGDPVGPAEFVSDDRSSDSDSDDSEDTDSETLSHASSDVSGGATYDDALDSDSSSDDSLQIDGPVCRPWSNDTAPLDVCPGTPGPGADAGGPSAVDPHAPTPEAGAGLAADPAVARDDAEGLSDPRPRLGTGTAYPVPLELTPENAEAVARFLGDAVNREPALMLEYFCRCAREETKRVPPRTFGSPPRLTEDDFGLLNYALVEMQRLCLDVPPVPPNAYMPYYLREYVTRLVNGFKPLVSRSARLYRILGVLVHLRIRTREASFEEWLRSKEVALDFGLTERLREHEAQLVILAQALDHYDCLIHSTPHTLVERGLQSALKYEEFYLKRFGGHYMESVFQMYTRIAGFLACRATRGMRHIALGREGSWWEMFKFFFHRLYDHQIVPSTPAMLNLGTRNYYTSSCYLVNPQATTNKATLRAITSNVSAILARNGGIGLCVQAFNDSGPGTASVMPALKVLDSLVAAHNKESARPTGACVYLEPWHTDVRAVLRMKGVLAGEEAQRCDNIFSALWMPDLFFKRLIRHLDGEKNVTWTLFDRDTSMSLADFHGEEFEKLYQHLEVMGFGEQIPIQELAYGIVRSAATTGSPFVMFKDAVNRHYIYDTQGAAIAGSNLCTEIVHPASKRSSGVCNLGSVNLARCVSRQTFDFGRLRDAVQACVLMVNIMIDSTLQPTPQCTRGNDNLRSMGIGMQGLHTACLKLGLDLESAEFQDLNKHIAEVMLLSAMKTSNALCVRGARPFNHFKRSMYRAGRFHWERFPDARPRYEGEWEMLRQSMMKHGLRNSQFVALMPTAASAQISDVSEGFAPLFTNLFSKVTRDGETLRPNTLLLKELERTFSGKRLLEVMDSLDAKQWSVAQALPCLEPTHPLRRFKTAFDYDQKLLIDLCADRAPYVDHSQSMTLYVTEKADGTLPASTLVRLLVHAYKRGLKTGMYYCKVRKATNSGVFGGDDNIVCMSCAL

[2] = biological target: T1, Ribonucleoside-diphosphate reductase large subunit; test: Inhibitory activity was determined against HSV-1 Ribonucleoside diphosphate reductase; set-up: species or system Human alphaherpesvirus 1
[3] = Relative inhibition compared to HSV-R2-(329-337) was determined; Inactive at 2 mM
[4] = Relative inhibition compared to HSV-R2-(329-337) was determined; Inactive at 1 mM

| Compound | IC50 [1] [µM] | IC50 [2] [µM] | Relative inhibition [3] [%] | Relative inhibition [4] [%] |
| --- | --- | --- | --- | --- |
| COc1ccc(C[C@H](NC(C)=O)C(=O)N[C@@H](C)C(=O)NCC(=O)N[C@@H](C)C(=O)N[C@H](C(=O)N[C@H](C(=O)N[C@@H](CC(N)=O)C(=O)N[C@@H](CC(=O)O)C(=O)N[C@@H](CC(C)C)C(=O)O)C(C)C)C(C)C)cc1 | 60 | – | – | – |
| COc1ccc(C[C@H](N)C(=O)N[C@@H](C)C(=O)NCC(=O)N[C@@H](C)C(=O)N[C@H](C(=O)N[C@H](C(=O)N[C@@H](CC(N)=O)C(=O)N[C@@H](CC(=O)O)C(=O)N[C@@H](CC(C)C)C(=O)O)C(C)C)C(C)C)cc1 | 60 | – | – | – |
| CC(C)C[C@H](NC(=O)[C@H](CC(=O)O)NC(=O)[C@H](CC(N)=O)NC(=O)[C@@H](NC(=O)[C@@H](NC(=O)[C@H](C)NC(=O)CNC(=O)[C@H](C)NC(=O)[C@@H](N)Cc1ccc(O)cc1)C(C)C)C(C)C)C(N)=O | 60 | – | – | – |
| CSCC[C@H](NC(=O)[C@@H](NC(=O)[C@@H](N)Cc1ccc(O)cc1)[C@@H](C)O)C(=O)N[C@@H](CC(C)C)C(=O)N[C@H](C(=O)N[C@H](C(=O)N[C@@H](CC(=O)O)C(=O)N[C@@H](CC(=O)O)C(=O)N[C@@H](CC(C)C)C(=O)O)C(C)C)C(C)C | 36 | 110 | – | – |
| CC(C)C[C@H](NC(=O)[C@H](CC(=O)O)NC(=O)[C@H](CC(N)=O)NC(=O)[C@@H](NC(=O)[C@@H](NC(=O)[C@H](C)NC(=O)CNC(=O)[C@H](C)NC(=O)[C@H](Cc1ccc(O)cc1)NC(=O)[C@H](CO)NC(=O)[C@@H](NC(=O)[C@H](CO)NC(=O)[C@H](CCCN=C(N)N)NC(=O)[C@H](CS)NC(=O)[C@H](CCC(=O)O)NC(=O)[C@H](Cc1ccccc1)NC(=O)[C@H](Cc1ccccc1)NC(=O)[C@H](CC(=O)O)NC(=O)[C@@H](N)[C@@H](C)O)[C@@H](C)O)C(C)C)C(C)C)C(=O)O | 55 | 15 | – | – |
| CC(=O)N[C@H](C(=O)N[C@H](C(=O)N[C@@H](CC(N)=O)C(=O)N[C@@H](CC(=O)O)C(=O)N[C@@H](CC(C)C)C(=O)O)C(C)C)C(C)C | 60 | 400 | – | – |
| CC(=O)N[C@H](Cc1ccc(O)cc1)C(=O)N[C@@H](C)C(=O)NCC(=O)N[C@@H](C)C(=O)N[C@H](C(=O)N[C@H](C(=O)N[C@@H](CC(N)=O)C(=O)N[C@@H](CC(=O)O)C(=O)N[C@@H](CC(C)C)C(=O)O)C(C)C)C(C)C | 60 | – | – | – |
| CC(C)C[C@H](NC(=O)[C@H](CC(=O)O)NC(=O)[C@H](CC(N)=O)NC(=O)[C@@H](NC(=O)[C@@H](NC(=O)[C@H](C)NC(=O)CNC(=O)[C@H](C)NC(=O)[C@H](Cc1ccc(O)cc1)NC(=O)CCCCCCCN)C(C)C)C(C)C)C(=O)O | 44 | 12 | – | – |
| CC(=O)N[C@@H](Cc1ccc(O)cc1)C(=O)N[C@H](C)C(=O)NCC(=O)N[C@@H](C)C(=O)N[C@H](C(=O)N[C@H](C(=O)N[C@@H](CC(N)=O)C(=O)N[C@@H](CC(=O)O)C(=O)N[C@@H](CC(C)C)C(=O)O)C(C)C)C(C)C | 60 | – | – | – |
| CC(=O)N[C@@H](Cc1ccc(O)cc1)C(=O)N[C@@H](C)C(=O)NCC(=O)N[C@@H](C)C(=O)N[C@H](C(=O)N[C@H](C(=O)N[C@@H](CC(N)=O)C(=O)N[C@@H](CC(=O)O)C(=O)N[C@@H](CC(C)C)C(N)=O)C(C)C)C(C)C | 60 | – | – | – |
| CC(=O)N[C@@H](Cc1ccc(O)cc1)C(=O)N[C@@H](C)C(=O)NCC(=O)N[C@@H](C)C(=O)N[C@H](C(=O)N[C@H](C(=O)N[C@@H](CC(N)=O)C(=O)N[C@@H](CC(=O)O)C(=O)N[C@@H](CC(C)C)C(=O)O)C(C)C)C(C)C | 60 | – | – | – |
| CC(C)C[C@H](NC(=O)[C@H](CC(=O)O)NC(=O)[C@H](CC(N)=O)NC(=O)[C@@H](NC(=O)[C@@H](NC(=O)[C@H](C)NC(=O)CNC(=O)[C@H](C)NC(=O)CCc1ccc(O)cc1)C(C)C)C(C)C)C(=O)O (Desaminotyrosyl-AGAVVNDL-OH) | 60 | 33 | – | – |
| CC[C@H](C)[C@H](NC(=O)[C@@H](NC(=O)CNC(=O)[C@H](C)NC(=O)CCc1ccc(O)cc1)C(C)O)C(=O)N[C@@H](CC(N)=O)C(=O)N[C@@H](CC(=O)O)C(=O)N[C@@H](CC(C)C)C(=O)O (some centres not stated) (Desaminotyrosyl-AG[Thr(3ξ)]INDL-OH) | 13 | 13 | – | – |
| CC(C)C[C@H](NC(=O)[C@H](CC(=O)O)NC(=O)[C@@H](N)CC(N)=O)C(=O)O (H-Asn-Asp-Leu-OH) | – | – | 0 | – |
| CC(C)C[C@H](NC(=O)[C@H](CC(=O)O)NC(=O)[C@H](CC(N)=O)NC(=O)[C@@H](N)C(C)C)C(=O)O (H-VNDL-OH) | – | – | 0 | – |
| CC(C)C[C@H](NC(=O)[C@H](CC(=O)O)NC(=O)[C@H](CC(N)=O)NC(=O)[C@@H](NC(=O)[C@@H](NCCCCCCCCOC(=O)[C@@H](N)Cc1ccc(O)cc1)C(C)C)C(C)C)C(=O)O (H-[X1](Tyr)VNDL-OH) | 63 | 63 | – | – |
| Ac-YAGVVNDL-OH | 60 | – | – | – |
| Ac-YGAVVNDL-OH | 60 | – | – | – |
| H-AAGAVVNDL-OH | 280 | 280 | – | – |
| H-AGAVVNDL-OH | 36 | 283 | – | – |
| H-AVVNDL-OH | 190 | 190 | – | – |
| H-ECRSTSYAGAVVNDL-OH | 60 | 42 | – | – |
| H-FAGAVVNDL-OH | 55 | 90 | – | – |
| H-GAVVNDL-OH | 225 | 225 | – | – |

| Compound | IC50 [1] [µM] | IC50 [2] [µM] | Relative inhibition [3] [%] | Relative inhibition [4] [%] |
| --- | --- | --- | --- | --- |
| H-HAGAVVNDL-OH | 55 | 323 | – | – |
| H-KYAGAVVNDL-OH | 55 | – | – | – |
| H-LAGAVVNDL-OH | 211 | 211 | – | – |
| H-STSYAGAVVNDL-OH | 60 | 29 | – | – |
| H-YAGAAVNDL-OH | – | – | 0 | – |
| H-YAGAVANDL-OH | 60 | 760 | – | – |
| H-YAGAVINDL-OH | 49 | 33 | – | – |
| H-YAGAVV-OH | – | – | 0 | – |
| H-YAGAVVADL-OH | – | – | – | 0 |
| H-YAGAVVN-OH | – | – | 0 | – |
| H-YAGAVVNAL-OH | – | – | – | 0 |
| H-YAGAVVND-OH | – | – | 0 | – |
| H-YAGAVVNDA-OH | – | – | – | 0 |
| H-YAGAVVNDF-OH | – | – | – | 0 |
| H-YAGAVVNDI-OH | 55 | 153 | – | – |
| H-YAGAVVNDLK-OH | 55 | 458 | – | – |
| H-YAGAVVNDV-OH | 55 | 846 | – | – |
| H-YAGAVVNDY-OH | – | – | – | 0 |
| H-YAGPVVNDL-OH | 44 | – | – | – |
| H-YAGTVINDL-OH | 60 | – | – | – |
| H-YAGTVVNDL-OH | 44 | 29 | – | – |
| H-YAPAVVNDL-OH | 44 | 37 | – | – |
| H-YAVVNDL-OH | 60 | – | – | – |
| H-YGAVVNDL-OH | 60 | 330 | – | – |
